One experiment deals with HCT116 cells. The experiment can be described thus: IL2 ELISA, dependence of DD-IL2 levels on Shield-1 dose. The experiment is classed as cell-based. The following applies: 96-well plate, varying concentrations of Shield-1, DD-IL2 construct, read-out: ECK of Shield-1 (IL2 levels by IL2 ELISA). From the text:
FKBP (L106P) and ecDHFR (R12Y, Y100I) are well-characterized destabilizing domains which can confer instability to fusion partners (e.g., a POI). The instability is reversed by a synthetic ligand named Shield-1 that binds to FKBP; TMP that binds to DHFR. An IL2 polypeptide was linked to either FKBP (L106P) or ecDHFR (R12Y, Y100I). IL2 constructs were cloned into pLVX-IRES-Puro lentiviral vectors. An IL2 signal sequence was inserted at the N terminus of the construct.
To evaluate dependence of IL2 levels on Shield-1 dose, HCT116 cells were plated onto a 96-well plate and treated with varying concentrations of Shield-1. Media was then collected from cells and IL2 levels were quantified using IL2 ELISA (FIG. 20). IL2 increased with increase in Shield-1 concentration and plateaued at higher Shield-1 dose levels. The ECK of Shield-1 was determined to be 50 nM
(An ELISA detects its analyte on a solid surface through an enzyme-linked reagent.)

Another experiment relates to HEK293T cells. The experiment can be described thus: IL12-p40 ELISA, Shield-1 dose and cell number dependent IL12 induction. As to conditions: OT-IL12-004 transduced HEK293T cells, 24 hours. The experiment is classed as cell-based, human.
In experiment [1] the test system is HCT-116 cells. Nature of the experiment: Luciferase expression by western blotting. The experiment is classed as cell-based. As to conditions: HCT-116 stably transduced; 1 μM Shield-1 or 10 μM Trimethoprim or vehicle, 24 hours; FIG. 22A. The method, then:
DD regulated luciferase can be used to track cells in vivo e.g. T cells. Firefly luciferase or Renilla luciferase may be utilized as the payload. HCT-116 cells were stably transduced with the constitutive (OT-RLuc-001) or DD regulated constructs (OT-RLuc-002, OT-RLuc-003, OT-RLuc-004, OT-RLuc-005 and OT-RLuc-006). Cells were treated with 1 μM Shield-1, or 10 μM Trimethoprim or vehicle control for 24 hours and luciferase expression and activity was measured. Luciferase expression was measured via western blotting using Anti-Renilla luciferase and anti-Firefly luciferase antibodies (Abcam, Cambridge, UK). Blots were also probed with anti-GAPDH antibody to ensure even protein loading in all samples.
(In general: In western blotting, separated proteins are transferred to a membrane and probed.)

The test system of another experiment is HEK-Blue sensor cells. Nature of the experiment: HEK-Blue sensor cell assay for functional IL12 (Quanti-Blue). The experiment is classed as cell-based. As to conditions: HEK 293T transfected with 200 ng plasmid, 10 μM Shield-1 24 hours; media on HEK Blue sensor cells; FIG. 21A. The method, then: HEK-Blue sensor cells (InvivoGen, San Diego, Calif.) were utilized to evaluate whether DD regulated IL12 is capable of regulating signaling downstream of IL12. In these cells, the IL12 receptor, STAT4 and downstream transcriptional elements are tied to a reporter gene such that IL12 signaling can be monitored. To evaluate production of functional IL12, one million HEK 293T were transfected with 200 ng of OT-IL-12-003 plasmid using Lipofectamine 2000 (Thermo Fisher Scientific, Waltham, Mass.). 48 hours after transfection, cells were treated with growth media containing 10 μM Shield-1, incubated for another 24 hours, following which, media was collected. […] After overnight incubation, 20 μl media was removed from each well and incubated with 180 μl Quanti-Blue reagent (InvivoGen, San Diego, Calif.) for 30 minutes at 37° C. Absorption was measured at 620 nm using a spectrophotometer. […] Functional IL12 concentrations were determined by comparing the optical density of each sample with IL12 standard curve.
The dependence of functional IL12 production on the dose of Shield-1 used was also evaluated. […] Absorption was measured at 620 nm using a spectrophotometer. […] Functional IL12 concentrations were determined by comparing the optical density of each sample with IL12 standard curve.

Experiment [2] has as its system HCT-116 cells. The experiment can be described thus: Luciferase activity, luminescence reading. The following applies: 1 μM Shield-1 or 10 μM Trimethoprim or vehicle, 24 hours; coelentrazine or luciferin substrate; FIG. 22B. The experiment is classed as cell-based. The protocol: Ligand dependent activity of Renilla and firefly luciferase constructs was also measured in using coelentrazine and luciferin substrates respectively. Cells were treated with 1 μM Shield-1, or 10 μM Trimethoprim or vehicle control for 24 hours, lysed with assay lysis buffer and incubated with the luciferase substrate. Luciferase activity was measured as luminescence reading using a luminometer and the values were compared to control comprising of lysis buffer and substrate.

Description for HEK293T cells: Following overnight incubation, cells were treated with growth medium containing 0 to 10 μM Shield-1 for 24 hours. Media was then collected, diluted 400 fold and FKBP-IL12 levels were measured using IL12-p40 ELISA.

In the case of `CC[C@H](C(=O)N1CCCC[C@H]1C(=O)O[C@H](CCc1ccc(OC)c(OC)c1)c1cccc(OCCN2CCOCC2)c1)c1cc(OC)c(OC)c(OC)c1` [Shield-1], the EC50 in the experiment with HCT116 cells came out at 50 nM. For the same molecule, the “Shield-1 dose up to which IL12 induction increased, then plateaued” value in the experiment with HEK293T cells worked out at 1 µM. Consider “OT-RLuc-003: FKBP (F36V, 106P); linker (SG); Renilla Luc; SEQ ID NO 213374”, for which the “Luciferase expression, ligand dependent stabilization (western blotting)” value (shortened to “Luciferase expression”) in the experiment on HCT-116 cells [1] is given as “strong Shield-1 dependent stabilization”. On to “OT-FLuc-002: FKBP (F36V, 106P); linker (EF); Fluc; SEQ ID NO 213373”, for which, in the experiment with HCT-116 cells [1], the “Luciferase expression” value is listed as “modest stabilization”. For the molecule “OT-IL12-003: p40 signal sequence; FKBP (F36V, L106P); furin (SARNRQKRS); p40; linker ((G4S)3); p35; SEQ ID NO 213301”, the “Media dilution at which measurable levels of functional IL12 were reached” value in the experiment on HEK-Blue sensor cells is given as 640 fold.

B1: OT-RLuc-005: Renilla Luc; linker (SG); FKBP (E31G, F36V, R71G, K105E); SEQ ID NO 213376 (protein)
chain: MTSKVYDPEQRKRMITGPQWWARCKQMNVLDSFINYYDSEKHAENAVIFLHGNAASSYLWRHVVPHIEPVARCIIPDLIGMGKSGKSGNGSYRLLDHYKYLTAWFELLNLPKKIIFVGHDWGACLAFHYSYEHQDKIKAIVHAESVVDVIESWDEWPDIEEDIALIKSEEGEKMVLENNFFVETMLPSKIMRKLEPEEFAAYLEPFKEKGEVRRPTLSWPREIPLVKGGKPDVVQIVRNYNAYLRASDDLPKMFIESDPGFFSNAIVEGAKKFPNTEFVKVKGLHFSQEDAPDEMGKYIKSFVERVLKNEQSGGVQVETISPGDGRTFPKRGQTCVVHYTGMLGDGKKVDSSRDRNKPFKFMLGKQEVIRGWEEGVAQMSVGQGAKLTISPDYAYGATGHPGIIPPHATLVFDVELLELE
Turning to B1, the “Luciferase expression” value in the experiment on HCT-116 cells [1] was “modest stabilization”.

B2: OT-RLuc-001: Renilla Luc (constitutive); SEQ ID NO 213372 (protein)
chain: MTSKVYDPEQRKRMITGPQWWARCKQMNVLDSFINYYDSEKHAENAVIFLHGNAASSYLWRHVVPHIEPVARCIIPDLIGMGKSGKSGNGSYRLLDHYKYLTAWFELLNLPKKIIFVGHDWGACLAFHYSYEHQDKIKAIVHAESVVDVIESWDEWPDIEEDIALIKSEEGEKMVLENNFFVETMLPSKIMRKLEPEEFAAYLEPFKEKGEVRRPTLSWPREIPLVKGGKPDVVQIVRNYNAYLRASDDLPKMFIESDPGFFSNAIVEGAKKFPNTEFVKVKGLHFSQEDAPDEMGKYIKSFVERVLKNEQ
B2: the “Luciferase expression” value with HCT-116 cells [1] was “expression of Renilla luciferase both in the presence and absence of ligand”. Further, in the experiment with HCT-116 cells [2], the “Luciferase activity (luminescence reading)” value was “high luciferase activity both in the presence and absence of ligand”.

B3: OT-RLuc-004: ecDHFR (R12Y, Y100I); linker (SG); Renilla Luc; SEQ ID NO 213375 (protein)
chain: MISLIAALAVDYVIGMENAMPWNLPADLAWFKRNTLNKPVIMGRHTWESIGRPLPGRKNIILSSQPGTDDRVTWVKSVDEAIAACGDVPEIMVIGGGRVIEQFLPKAQKLYLTHIDAEVEGDTHFPDYEPDDWESVFSEFHDADAQNSHSYCFEILERRSGTSKVYDPEQRKRMITGPQWWARCKQMNVLDSFINYYDSEKHAENAVIFLHGNAASSYLWRHVVPHIEPVARCIIPDLIGMGKSGKSGNGSYRLLDHYKYLTAWFELLNLPKKIIFVGHDWGACLAFHYSYEHQDKIKAIVHAESVVDVIESWDEWPDIEEDIALIKSEEGEKMVLENNFFVETMLPSKIMRKLEPEEFAAYLEPFKEKGEVRRPTLSWPREIPLVKGGKPDVVQIVRNYNAYLRASDDLPKMFIESDPGFFSNAIVEGAKKFPNTEFVKVKGLHFSQEDAPDEMGKYIKSFVERVLKNEQ
Turning to B3, in the experiment on HCT-116 cells [1], the “Luciferase expression” value was “modest stabilization”.

B4: OT-RLuc-006: Renilla Luc; linker (SG); ecDHFR (R12Y, Y100I); SEQ ID NO 213377 (protein)
chain: MTSKVYDPEQRKRMITGPQWWARCKQMNVLDSFINYYDSEKHAENAVIFLHGNAASSYLWRHVVPHIEPVARCIIPDLIGMGKSGKSGNGSYRLLDHYKYLTAWFELLNLPKKIIFVGHDWGACLAFHYSYEHQDKIKAIVHAESVVDVIESWDEWPDIEEDIALIKSEEGEKMVLENNFFVETMLPSKIMRKLEPEEFAAYLEPFKEKGEVRRPTLSWPREIPLVKGGKPDVVQIVRNYNAYLRASDDLPKMFIESDPGFFSNAIVEGAKKFPNTEFVKVKGLHFSQEDAPDEMGKYIKSFVERVLKNEQSGISLIAALAVDYVIGMENAMPWNLPADLAWFKRNTLNKPVIMGRHTWESIGRPLPGRKNIILSSQPGTDDRVTWVKSVDEAIAACGDVPEIMVIGGGRVIEQFLPKAQKLYLTHIDAEVEGDTHFPDYEPDDWESVFSEFHDADAQNSHSYCFEILERR
In the case of B4, the “Luciferase expression” value with HCT-116 cells [1] was “modest stabilization”.

For the origin of these results see patent publication US11446398B2, “Regulated biocircuit systems” (Obsidian Therapeutics, Inc., priority 2016, dated 2022).
